Ends that are not written are not given here.
Columns and labels:
SPS domain = experiment: SPS phosphorylation detected by anti pSPS Ab Western blot; format: cell-based; details: cells pretreated (15 min) prior to EGF 50 ng/ml stimulation
Description: FIGS. 4A-4I are autoradiographs characterizing SPS phosphorylation using an Ab to the phosphorylated SPS domain. FIG. 4A illustrates an elevation of pSPS detection upon stimulation. COS cells were transfected with WT-GFP-ERK2. Twenty-four hr after transfection, the cells were serum-starved for 16 hr and subsequently treated with the general stimulator VOOH (V, 100 μM Na3VO4 and 200 μM H2O2, 15 min), TPA (T, 250 nM, 15 min), EGF (E, 50 ng/ml for 15 min), or left untreated (NT). The GFP-ERK2 was immunoprecipitated with anti GFP Ab, extensively washed, and the IP was then subjected to Western blotting with anti phospho SPS-ERK (αphoSPS-ERK) and anti general ERK (αgen-ERK) Abs. FIG. 4B is a time course of SPS phosphorylation. COS7 cells overexpressing WT-GFP-ERK2 were serum starved followed by EGF stimulation for the indicated time points. The lysates were then subjected to Western blot analysis as in FIG. 4A. FIGS. 4C-D. GFP-ERK2 was immunoprecipitated from VOOH stimulated (Act) or non-stimulated (NT), transfected COS7 cells as above. The immunoprecipitated protein was then incubated with shrimp's alkaline phosphates (SAP, 15 units, 30 min, 30° C. in the manufacturer digestion buffer), and subjected to Western blot analysis with anti phosphoSPS-ERK (αpSPS; FIG. 4C), anti phosphoTEY-ERK (αpTEY; FIG. 4D), and anti general-ERK Ab (αgen-ERK; FIGS. 4C, D). FIG. 4E. Elevation of anti pSPS Ab immunoreactivity upon stimulation of endogenous ERKs. Following serum starvation COS7 cells were treated with EGF (50 ng/ml) or VOOH (V, 100 μM Na3VO4 and 200 μM H2O2) for the indicated times. SPS phosphorylation was detected using the anti pSPS Abs, and this was compared to the amount of genral ERKs detected by αgERK. FIG. 4F. Specificity of the anti pSPS Ab. COS7 cells overexpressing either GFP-ERK2 or 244-6A mutant were serum starved for 16 hr, and then treated with EGF (50 ng/ml) for 15 min following WB analysis using αpSPS and αgERK Abs. FIG. 4G. TEY phosphorylation is not required for SPS phosphorylation. COS7 cells overexpressing WT-ERK2 or TEY-AAA were treated as described in D. FIG. 4H. COS7 cells were treated with or without UO126 prior (15 min) to EGF (50 ng/ml) stimulation for the indicated times. SPS-phosphorylation was detected using αpSPS and αgERK Abs. FIG. 4I. Phosphorylation of SPS is mediated by ERK autophosphorylation. […] The phosphorylation (^32P-ERK2) of ERK and its mutants was detected by autoradiography. […]
FIG. 9B is an autoradiograph illustrating that stimulation elevates pSPS phosphorylation of 2GFP-SPS construct. […] The total amount of immunoprecipitated 2GFP-SPS was detected with αGFP Ab. […]

CHO cells [1] = experiment: Microscopy of MEK1-GFP constructs (subcellular localization); format: cell-based
Description: FIGS. 14A-14R are photomicrographs illustrating that the NTS motif regulates MEK1 shuttling into the nucleus. CHO cells overexpressing WT-GFP-MEK1 (WT), AAA-GFP-MEK1 (AAA-MEK) and EPE-GFP-MEK1 (EPE-MEK) were starved for 16 hr and treated with LMB (5 ng/ml, 1 hr; LMB), LMB (5 ng/ml, 1 hr)+TPA (250 nM, 15 min; LMB+TPA) or left un treated (NT). Subsequently the cells were fixed, stained with DAPI and visualized by a fluorescent microscope.
(§1) Immunofluorescence Microscopy. Cells were fixed (30 min in 3% paraformaldehyde in PBS or 10 min with ice-cold methanol), followed by 5-min permeabilization with 0.2% Triton X-100 in PBS (23° C.). The fixed cells were sequentially incubated with the appropriate Abs (45 min) followed by rhodamine-conjugated secondary Abs (45 min) and DAPI. Slides were visualized using a fluorescence microscope (Nikon, Japan) at 400× magnifications.
Other proteins that translocate into the nucleus upon stimulation are the MEKs [H. Jaaro, H. Rubinfeld, T. Hanoch, R. Seger, Proc. Natl. Acad. Sci. USA 94, 3742 (1997)]. […] This TPT sequence was also shown to be phosphorylated upon cellular stimulation [S. Matsuda, Y. Gotoh, E. Nishida, J Biol Chem 268, 3277 (Feb. 15, 1993)], and to be involved in protein-protein interaction that can determine subcellular localization [A. Nantel, K. Mohammad-Ali, J. Sherk, B. I. Posner, D. Y. Thomas, J Biol Chem 273, 10475 (Apr. 24, 1998). […]

CHO cells [2] = experiment: Fluorescence microscopy of 2GFP chimeras (subcellular localization); format: cell-based; details: 24 hr post transfection, serum-starved
Description: FIGS. 8A-8H are photomicrographs illustrating that SPS, APA, and EPE peptides fused to a 2GFP chimera modify its subcellular localization. CHO cells were grown on cover slips and transfected with 19 amino acid from the kinase insert domain of ERK2 including the SPS region (GFP-SPS) fused to a 2GFP chimera and with the same chimeras with substitution of the Ser to Ala (GFP-APA) or substitution to Glu (GFP-EPE). Twenty-four hr later, the cells were serum-starved for 16 hr, fixed, stained with DAPI and visualized by a fluorescence microscope.
as §1
To validate the general importance of the SPS domain, a 19 amino acid sequence surroundings the SPS or the APA and EPE mutants was fused to a dimer of GFP proteins (2GFP). Cellular distribution of the chimeras was detected in CHO cells 24 hr post transfection of the GFP constructs.

COS7 cells = experiment: Subcellular fractionation of 2GFP chimeras; format: cell-based
Description: FIG. 9A is an autoradiograph illustrating the subcellular fractionation of transfected SPS, APA, and EPE peptides fused to a 2GFP in COS7 cells. Western blot analysis of aliquots of the fractions were stained with anti GFP Ab to detect the different chimaras, and with anti tubulin and anti c-Jun Abs as markers for the cytoplasmic and nuclear fractions respectively.
Cellular Fractionation: Transfected COS7 cells were starved (0.1% FBS) for 16 h, after which they were washed with ice-cold PBS, suspended in ice-cold buffer H, and centrifuged (12,000×g, 5 min). Then, the nuclear and cytosolic fractions were isolated as described [H. Rubinfeld, T. Hanoch, R. Seger, J. Biol. Chem. 274, 30349 (1999)]. Briefly, the pellets were suspended in 0.1% NP-40 followed by centrifugation (12,000×g, 5 min). The supernatant, containing the cytosolic fraction, was boiled in sample buffer. The pellet was suspended in extraction buffer (420 mM Nacl, 50 mM β-glycerophosphate, 0.5 mM Na3VO4, 1.5 mM MgCl2, 0.2 mM EDTA, 1 mM DTT, 25% glycerol), incubate on ice for 10 min, sonicated (50 W, 2×7 sec), and centrifuged (12,000×g, 5 min). The supernatant, containing the nuclear fraction, was subjected to Western blot.

importin-7 = target: T1, importin-7 (Homo sapiens, UniProt O95373); experiment: Coimmunoprecipitation with importin-7; format: binding; details: HeLa cells, coimmunoprecipitation, without EGF stimulation
T1 construct: endogenous in cells; host or cells: HeLa
Description: FIGS. 19A-19C are autoradiographs illustrating that phospho-SPS interacts with importin-7 and releases Nup153c binding without involvment of importin-β. […]. Interaction of ERK2 with Importin-7 is enhanced by EGF stimulation and EPE mutation. HeLa cells overexpressing WT-ERK (WT), ERK-APA (APA), ERK-EPE (EPE) or GFP were serum starved and treated with EGF (50 ng/ml, 10 min). The extracts of the treated cells were then subjected to coimmunoprecipitation using A/G beads pre-conjugated with anti GFP Ab and mild washes. The coimmunoprecipitated importin-7 (first panel) and importin-β (third panel), as well as their loading amounts (panels 2 and 4 respectively) were determined by WB using anti importin-7 (αImp7) and importin-β (αImpβ) Abs. The equal amount of immunoprecipitated ERKs was determined with anti GFP (αGFP; IP) Ab. FIG. 19B. Interaction of 2GFP-SPS and its mutants with importin-7. HeLa cells overexpressing 2GFP, 2GFP-SPS, 2GFP-APA and 2GFP-EPE constructs were subjected to coimmunoprecipitation as described in FIG. 19A (without EGF stimulation). FIG. 19C. Interaction of NUP153 with WTERK2 and its APA and EPE mutants. NUP153c is elevated in APA-ERK2, but reduced in EPE-ERK2. Immunoprecipitated and stringently washed WT-ERK2 (WT), APA-ERK2 (APA) or ERK2 from […] cells pre-treated with or without TPA (250 nM, 15 min) were incubated with 0.5 μg recombinant His-Nup153c. This was followed by mild washing, and the beads were then subjected to Western blot analysis using anti His (αHis) and anti αGFP Abs.
Immunoprecipitation. Cellular extracts of stimulated transfected cells, were incubated with anti-GFP antibody preconugated to A/G beads (Santa Cruz; (2 hr, 4° C.). Subsequently, the beads were washed twice with HNTG buffer and once with 0.5 M LiCl. The immunoprecipitates were subjected either to Western blotting as described above or to an in vitro phosphatase assay as described under Results.

endogenous ERKs = experiment: Effect of 2GFP chimeras on nuclear translocation of endogenous ERKs; format: cell-based; details: CHO cells overexpressing the chimera, TPA 250 nM, 15 min
Description: FIGS. 10A-10X illustrate the effects of the 2GFP chimeras on the nuclear translocation of endogenous ERKs. CHO cells overexpressing 2GFP, 2GFP-SPS, 2GFP-APA and 2GFP-EPE were serum starved and treated with or without TPA (250 nM, 15 min). Subsequently, the cells were fixed and stain with anti-ERK2 (C-14) Ab and with DAPI.
as §1

T1 sequence (O95373 whole entry): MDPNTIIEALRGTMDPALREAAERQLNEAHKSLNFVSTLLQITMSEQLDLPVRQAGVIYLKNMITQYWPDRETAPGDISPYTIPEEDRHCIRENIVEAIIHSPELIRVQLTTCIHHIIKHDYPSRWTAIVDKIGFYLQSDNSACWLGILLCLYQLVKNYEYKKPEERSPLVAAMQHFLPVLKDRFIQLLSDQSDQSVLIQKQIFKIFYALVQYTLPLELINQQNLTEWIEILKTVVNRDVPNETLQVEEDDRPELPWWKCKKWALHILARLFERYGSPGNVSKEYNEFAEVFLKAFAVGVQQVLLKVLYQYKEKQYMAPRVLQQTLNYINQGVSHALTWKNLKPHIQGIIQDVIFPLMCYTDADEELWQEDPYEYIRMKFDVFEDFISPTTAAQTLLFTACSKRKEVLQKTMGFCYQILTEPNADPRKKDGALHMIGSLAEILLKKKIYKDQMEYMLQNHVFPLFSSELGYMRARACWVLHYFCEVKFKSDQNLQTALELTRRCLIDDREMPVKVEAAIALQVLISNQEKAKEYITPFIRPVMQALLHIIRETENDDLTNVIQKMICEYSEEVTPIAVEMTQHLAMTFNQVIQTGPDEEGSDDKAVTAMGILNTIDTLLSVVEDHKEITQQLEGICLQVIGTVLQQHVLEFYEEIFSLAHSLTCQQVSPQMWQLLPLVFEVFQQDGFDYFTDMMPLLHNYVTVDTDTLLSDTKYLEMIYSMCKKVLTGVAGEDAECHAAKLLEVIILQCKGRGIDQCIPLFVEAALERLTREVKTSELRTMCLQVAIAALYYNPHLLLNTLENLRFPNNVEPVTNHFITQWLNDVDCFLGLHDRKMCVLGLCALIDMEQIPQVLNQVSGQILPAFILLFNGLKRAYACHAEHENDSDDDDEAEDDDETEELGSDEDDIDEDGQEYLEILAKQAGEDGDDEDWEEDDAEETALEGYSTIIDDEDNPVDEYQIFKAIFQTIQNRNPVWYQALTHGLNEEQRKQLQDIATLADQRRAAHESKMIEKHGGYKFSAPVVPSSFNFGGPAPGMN

Compound | anti pSPS Ab reaction with GFP-ERK2 after inhibitor pretreatment (SPS domain) | nuclear accumulation after TPA stimulation (CHO cells [1]; LMB 5 ng/ml + TPA 250 nM, 15 min) | nuclear translocation after leptomycin B (CHO cells [1]; LMB 5 ng/ml, 1 hr) | cellular distribution (CHO cells [2]) | localized in the nucleus (COS7 cells) [%] | interaction of 2GFP constructs with importin-7 (importin-7) | inhibition of TPA-induced translocation of endogenous ERKs (endogenous ERKs)
N#CC(=C(/N)Sc1ccccc1N)/C(C#N)=C(\N)Sc1ccccc1N [U0126, reference compound] | did not react |  |  |  |  |  | 
EPE-MEK1: GFP-MEK1 with residues 386 and 388 replaced with Glu |  | localized in the nucleus even without stimulation | increased |  |  |  | 
2GFP-APA: 2GFP-WT with the Ser residues in the SPS domain mutated to Ala (LDQLNHILGILGAPAQEDL; also: fused to 2GFP (large carrier)) |  |  |  | mainly in the cytoplasm and perinuclear region | 3 | reduced this interaction | more so
2GFP-EPE: 2GFP-WT with the Ser residues in the SPS domain mutated to Glu (LDQLNHILGILGEPEQEDL; also: fused to 2GFP (large carrier)) |  |  |  | mainly in the nucleus | 90 | elevated it | 
